We go through 13 compounds from patent US10167279B2 (NOVARTIS AG, priority 2014, dated 2019).

The term IC50 denotes the concentration needed to halve the response being measured.

C-Raf FL, sequence (P04049 whole entry Y340E/Y341E): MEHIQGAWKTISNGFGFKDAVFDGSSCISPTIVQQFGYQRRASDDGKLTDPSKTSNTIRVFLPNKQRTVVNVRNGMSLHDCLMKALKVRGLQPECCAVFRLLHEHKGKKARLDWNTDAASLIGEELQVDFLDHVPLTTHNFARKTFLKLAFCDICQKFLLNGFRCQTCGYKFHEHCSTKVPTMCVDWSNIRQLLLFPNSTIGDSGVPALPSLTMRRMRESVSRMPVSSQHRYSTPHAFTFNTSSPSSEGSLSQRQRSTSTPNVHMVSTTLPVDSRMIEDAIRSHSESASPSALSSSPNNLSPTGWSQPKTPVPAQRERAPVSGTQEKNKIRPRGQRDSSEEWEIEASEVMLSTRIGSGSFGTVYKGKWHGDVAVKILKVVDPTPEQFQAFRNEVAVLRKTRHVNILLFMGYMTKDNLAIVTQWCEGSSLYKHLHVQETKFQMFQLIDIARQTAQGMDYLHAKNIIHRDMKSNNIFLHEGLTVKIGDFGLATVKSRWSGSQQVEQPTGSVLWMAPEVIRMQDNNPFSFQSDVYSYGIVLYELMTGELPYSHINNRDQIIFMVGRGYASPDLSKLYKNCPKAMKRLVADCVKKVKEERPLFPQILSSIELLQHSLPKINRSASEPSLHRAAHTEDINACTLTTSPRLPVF
C-Raf FL, sequence (P63104 whole entry partner): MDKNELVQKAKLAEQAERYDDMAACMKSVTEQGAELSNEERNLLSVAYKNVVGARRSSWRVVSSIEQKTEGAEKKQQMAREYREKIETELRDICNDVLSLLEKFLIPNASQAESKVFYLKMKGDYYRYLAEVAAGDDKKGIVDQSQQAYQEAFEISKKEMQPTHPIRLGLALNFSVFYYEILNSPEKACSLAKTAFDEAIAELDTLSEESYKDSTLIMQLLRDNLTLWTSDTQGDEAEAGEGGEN

The assay has as its target C-Raf FL (Homo sapiens (Human), UniProt P04049, Y340E/Y341E). Nature of the assay: In vitro Raf activity determination (Alpha Screen, phospho-MEK), C-Raf FL (full length, Y340E/Y341E). Type of assay: biochemical. The settings on record: ATP 1 μM; 60 min pre-incubation; 1 hour reaction; column head does not say FL or TR. From the text: The activity of a compound according to the present invention can be assessed by well-known in vitro & in vivo methods. Raf inhibition data provided herein was obtained using the following procedures.
Sf9 cells co-expressing both proteins were lysed and subjected to immobilized nickel chromatography and eluted with Imidazole. A second column (StrepII binding column) was used and eluted with desthiobiotin. Protein Tags were removed using Prescission enzyme and the protein was further purified using a flowthrough step to remove tags.
C-Raf TR refers to a truncated C-Raf protein, a Δ1-324 deletion mutant. C-Raf FL refers to the full-length C-Raf protein.
Full length MEK1 with an inactivating K97R ATP binding site mutation is utilized as a RAF substrate. The MEK1 cDNA was subcloned with an N-terminal (his)6 tag into a vector for E. Coli expression. The MEK1 substrate was purified from E. Coli lysate by nickel affinity chromatography followed by anion exchange. The final MEK1 preparation was biotinylated (Pierce EZ-Link Sulfo-NHS-LC-Biotin) and concentrated.
Assay protocol: Raf and biotinylated Mek (kinase dead) were combined at 2× final concentrations in assay buffer (50 mM Tris, pH 7.5, 15 mM MgCl2, 0.01% BSA and 1 mM DTT) and dispensed […] per well in assay plates (Greiner white 384 well assay plates #781207) containing […] of 40× of a Raf kinase inhibitor test compound diluted in 100% DMSO. The plate was incubated for 60 minutes at room temperature. […] The reactions were stopped and the phosphorylated product was measured using a rabbit anti-p-MEK (Cell Signaling, #9121) antibody and the Alpha Screen IgG (ProteinA) detection Kit (PerkinElmer #6760617R), by the addition of […] to the well of a mixture of the antibody (1:2000 dilution) and detection beads (1:2000 dilution of both beads) in Stop/bead buffer (25 mM EDTA, 50 mM Tris, pH 7.5, 0.01% Tween20). The additions were carried out under dark conditions to protect the detection beads from light. A lid was placed on top of the plate and incubated for 1 hour at room temperature, after which the luminescence was read on a PerkinElmer Envision instrument. The concentration of each compound for 50% inhibition (IC50) was calculated by non-linear regression using XL Fit data analysis software.
Turning to `Cc1ncc(NC(=O)c2ccnc(C(C)(C)F)c2)cc1-c1cc(OCCO)nc(C2(F)COC2)c1` [Example 50, N-(2′-(3-fluorooxetan-3-yl)-6′-(2-hydroxyethoxy)-2-methyl-[3,4′-bipyridin]-5-yl)-2-(2-fluoropropan-2-yl)isonicotinamide], it took 3.29 nM to reach half-maximal inhibition (IC50). For `Cc1ncc(NC(=O)c2ccnc(C(F)(F)F)c2)cc1-c1cc(OCCO)nc(C2(F)COC2)c1` [Example 51, N-(2′-(3-fluorooxetan-3-yl)-6′-(2-hydroxyethoxy)-2-methyl-[3,4′-bipyridin]-5-yl)-2-(trifluoromethyl)isonicotin-amide] the value was 2.79 nM; for `Cc1ncc(NC(=O)c2cccc(C(F)(F)F)c2)cc1-c1cc(OCCO)nc(C2(F)COC2)c1` [Example 52, N-(2′-(3-fluorooxetan-3-yl)-6′-(2-hydroxyethoxy)-2-methyl-[3,4′-bipyridin]-5-yl)-3-(trifluoromethyl)benzamide], 2.15 nM; for `Cc1ccc(NC(=O)c2ccnc(C(F)F)c2)cc1-c1cc(OCCO)nc(C2(F)COC2)c1` [Example 53], 0.624 nM. For `Cc1ccc(NC(=O)c2ccnc(C(C)(F)F)c2)cc1-c1cc(OCCO)nc(C2(F)COC2)c1` [Example 54, 2-(1,1-difluoroethyl)-N-(3-(2-(3-fluorooxetan-3-yl)-6-(2-hydroxyethoxy)pyridin-4-yl)-4-methylphenyl)isonicotin-amide] the value was 0.211 nM; for `Cc1ccc(NC(=O)c2ccnc(C(F)F)c2)cc1-c1cc(OCCO)nc(C2(CF)COC2)c1` [Example 55, 2-(difluoromethyl)-N-(3-(2-(3-(fluoromethyl)oxetan-3-yl)-6-(2-hydroxyethoxy)pyridin-4-yl)-4-methylphenyl)isonicotin-amide], 0.0747 nM. Under `Cc1ccc(NC(=O)c2ccnc(C(C)(F)F)c2)cc1-c1cc(OCCO)nc(C2(CF)COC2)c1` [Example 56, 2-(1,1-difluoroethyl)-N-(3-(2-(3-(fluoromethyl)oxetan-3-yl)-6-(2-hydroxyethoxy)pyridin-4-yl)-4-methylphenyl)isonicotin-amide] stands 0.281 nM; under `Cc1ccc(NC(=O)c2ccnc(C(F)(F)F)c2)cc1-c1cc(OCCO)nc(C2(CF)COC2)c1` [Example 57, N-(3-(2-(3-(fluoromethyl)oxetan-3-yl)-6-(2-hydroxyethoxy)pyridin-4-yl)-4-methylphenyl)-2-(trifluoromethyl)isonicotin-amide], 0.149 nM; under `Cc1ccc(NC(=O)c2ccnc(C(F)(F)F)c2)cc1-c1cc(OCCO)nc(C2(C(F)F)COC2)c1` [Example 58, N-(3-(2-(3-(difluoromethyl)oxetan-3-yl)-6-(2-hydroxyethoxy)pyridin-4-yl)-4-methylphenyl)-2-(trifluoromethyl)isonicotin-amide], 0.0155 nM. As for `COC1(c2cc(-c3cc(NC(=O)c4ccnc(C(F)(F)F)c4)ccc3C)cnc2OCCO)COC1` [Example 59, N-(3-(6-(2-hydroxyethoxy)-5-(3-methoxyoxetan-3-yl)pyridin-3-yl)-4-methylphenyl)-2-(trifluoromethyl)isonicotin-amide], half-maximal inhibition (IC50) was put at 0.103 nM. This IC50 is about 6.6-fold higher than that of the compound before. Under `COC1(c2cc(-c3cc(NC(=O)c4ccnc(C(C)(F)F)c4)ccc3C)cnc2OCCO)COC1` [Example 60, 2-(1,1-difluoroethyl)-N-(3-(6-(2-hydroxyethoxy)-5-(3-methoxyoxetan-3-yl)pyridin-3-yl)-4-methylphenyl)isonicotin-amide] stands 0.203 nM. In turn, `COC1(c2cc(-c3cc(NC(=O)c4ccnc(C(C)(C)F)c4)cnc3C)cnc2OCCO)COC1` [Example 61, 2-(2-fluoropropan-2-yl)-N-(6′-(2-hydroxyethoxy)-5′-(3-methoxyoxetan-3-yl)-2-methyl-[3,3′-bipyridin]-5-yl)isonicotinamide] displayed a half-maximal inhibitory concentration (IC50) of 1.32 nM. Compared with the last compound, the IC50 is about 6.5-fold higher. Turning to `COc1ncc(-c2cc(NC(=O)c3ccnc(C(C)(C)C#N)c3)cnc2C)cc1C1(F)COC1` [Example 80, 2-(2-cyanopropan-2-yl)-N-(5′-(3-fluorooxetan-3-yl)-6′-methoxy-2-methyl-[3,3′-bipyridin]-5-yl)isonicotinamide], the midpoint of inhibition, the IC50, lay at 2 nM.
